Read-outs that look alike come from different tables or passages of the source.

In the test the target is WT STING (Homo sapiens, UniProt Q86WV6, H232R). Briefly: Differential scanning fluorimetry (DSF) with WT STING. Further details: truncated human WT STING or AQ STING (amino acid residues 140-343); 8xHis (N, cleaved yes); SUMO (N, cleaved yes); made in house; host or cells: E. coli Rosetta-gami B (DE3). Type of test: binding. The conditions noted are these: for ΔTm at 150 µM: read-out: DSF ΔTm WT STING. From the text:
Both WT and AQ human STING (G230A-R^293Q) cDNA were amplified by the use of PCR (Phusion® High-Fidelity DNA Polymerase, cat. # M0530S, NEB, Ipswich, USA) using oligonucleotides hSTING140-BamH-For ([…]) (SEQ ID NO:5) and hSTING379-Not-Rev3 ([…]) (SEQ ID NO:6) from pUNOI-hSTING-WT (cat. # punol-hstingwt, InvivoGen, San Diego, USA) and pUNO1-hSTING-HAQ plasmids (punol-hsting-haq, InvivoGen, San Diego, USA). Purified PCR products were cleaved with restriction enzymes BamHI (cat. # R^0136S, NEB, Ipswich, USA) and NotI (cat. # R^0189S, NEB, Ipswich, USA) and cloned into the pSUMO vector linearized with the identical enzymes. Plasmid pSUMO was created by introducing 8-His-SUMO sequence between NdeI and BamHI sites of pHis-parallel2 plasmid (Clontech, Moutain View, USA). pSUMO-STING WT or pSUMO-STING AQ plasmids thus encoded truncated human WT STING or AQ STING (amino acid residues 140-343) with N-terminal 8×His and SUMO tag.
The recombinant WT STING and AQ STING proteins were overexpressed in Rosetta-gami B (DE3) competent cells (cat. #71136-3, Merck Millipore, Billerica, USA). Bacterial pellets were re-suspended in ice-cold lysis buffer containing 50 mmol·l^−1 TrisCl (cat. # T1503, Sigma Aldrich, Czech Republic) pH 8.0, 300 mmol·l^−1 NaCl, 3 mmol·l^−1 (3-mercaptoethanol (cat. # M6250, Sigma Aldrich, Czech Republic), 10% glycerol (cat. #G5516, Sigma Aldrich, Czech Republic) and 20 mmol·l^−1 imidazole (cat. #15513, Sigma Aldrich, Czech Republic) using Dounce homogenizer. DNase I (cat. # D5025, Sigma Aldrich, Czech Republic) and RNase A (cat. # R^6513, Sigma Aldrich, Czech Republic) were added (final concentration 50 μg/ml) together with MgCl2 (final concentration 5 mmol·l^−1) to the homogenate and bacteria were lysed using French Press G-M™ High-Pressure Cell Press Homogenizer (1500 psi, 3 cycles). Lysate was spun 30,000 g for 20 minutes and supernatant was gently stirred with Ni-NTA resin (cat. #745400.25 Macherey-Nagel, Duren, Germany) for 30 minutes. The resin was poured into a chromatography column, washed with 50 ml buffer A (50 mmol·l^−1 TrisCl (pH 8.0), 800 mmol·l^−1 NaCl, 3 mmol·l^−1β-mercaptoethanol; 10% glycerol; 20 mmol·l^−1 imidazole) and 8-His-SUMO tagged STING proteins were eluted with 15 ml buffer A containing 300 mmol·l^−1 imidazole. The eluted proteins were cleaved with recombinant SUMO protease (80 pig/ml of protein solution, cat. #12588018, ThermoFisher, Waltham, USA). The proteins were further purified by size exclusion chromatography using HiLoad 16/60 Superdex 75 (cat. #28989333, GE Healthcare Bio-Sciences, Pittsburgh, USA) in 50 mmol·l^−1 Tris C1 buffer pH 7.4 containing 150 mmol·l^−1 NaCl, and 10% glycerol. Proteins were concentrated with Amicon® Ultra-15 10 K device (cat. # UFC901008, Merck Millipore, Billerica, USA) and flash frozen in liquid N2.
WT and AQ allelic forms of STING protein were diluted to the final concentration 0.1 mg/ml in 100 mmol·l^−1 TrisCl buffer pH 7.4 containing, 150 mmol·l^−1 NaCl, 1:500 SYPRO Orange (cat. # S6650, ThermoFisher, Waltham, USA) and 150 μM CDN or water. 20 μL solutions of the reaction mixtures were pipetted in triplicates into 96 well optical reaction plates and thermal denaturation of samples were performed on real time PCR cycler (LightCycler® 480 Instrument II—Roche, Basel, Switzerland). The first derivative of the thermal denaturation curves was performed to calculate denaturing temperatures of STING-CDN complexes and STING apoproteins. The thermal shift for each CDN was calculated by subtracting the average denaturing temperature of STING apoprotein from the average denaturing temperature of STING CDN complex.
(In general: In DSF a fluorescence change marks the thermal transition of the protein.)

Setting [1] is: thermal shift, truncated human WT STING 0.1 mg/ml, 150 μM CDN.

Chain of WT STING (Q86WV6 140-343 H232R): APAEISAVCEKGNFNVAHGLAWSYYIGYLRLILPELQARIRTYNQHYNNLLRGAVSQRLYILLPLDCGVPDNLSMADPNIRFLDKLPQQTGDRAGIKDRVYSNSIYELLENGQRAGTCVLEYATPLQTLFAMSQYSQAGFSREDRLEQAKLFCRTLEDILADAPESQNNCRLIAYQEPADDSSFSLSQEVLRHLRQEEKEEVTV

Take `CNc1ncnc2c1ncn2[C@@H]1O[C@@H]2COP(=O)(O)OC3C(O)[C@@H](COP(=O)(O)OC2C1O)C[C@H]3n1cnc2c(=O)[nH]c(N)nc21` (stereo partly drawn) [Compound 108, (6R,8R,15R,17R)-17-(2-amino-6-oxo-6,9-dihydro-1H-purin-9-yl)-3,9,12,18-tetrahydroxy-8-[6-(methylamino)-9H-purin-9-yl]-2,4,7,11,13-pentaoxa-3λ^5,12λ^5-diphosphatricyclo[13.2.1.0^6,10]octadecane-3,12-dione]: under setting [1], the ΔTm at 150 µM came out at 6 °C.

As for `Nc1ncc2ncn([C@@H]3O[C@@H]4COP(=O)(O)OC5C(O)[C@@H](COP(=O)(O)OC4C3O)C[C@H]5n3cnc4c(=O)[nH]c(N)nc43)c2n1` (stereo partly drawn) [Compound 106, (6R,8R,15R,17R)-17-(2-amino-6-oxo-6,9-dihydro-1H-purin-9-yl)-8-(2-amino-9H-purin-9-yl)-3,9,12,18-tetrahydroxy-2,4,7,11,13-pentaoxa-3λ^5,12λ^5-diphosphatricyclo[13.2.1.0^6,10]octadecane-3,12-dione], under setting [1], the thermal shift (ΔTm) at 150 µM stood at 5.5 °C.

Regarding `Nc1ncnc2c1ncn2[C@@H]1O[C@@H]2COP(=O)(S)O[C@@H]3[C@H](F)[C@@H](COP(=O)(S)O[C@H]2[C@H]1F)C[C@H]3n1cnc2c(=O)[nH]cnc21` (single isomer, unassigned) [Compound 128c], the “DSF ΔTm WT STING” value under setting [1] was determined as 11.4 °C.

As for `Nc1nc2c(ncn2[C@@H]2C[C@@H]3COP(=O)(O)OC4C(O)[C@H](n5cnc6c(N)ncnc65)O[C@@H]4COP(O)(=S)OC2C3O)c(=O)[nH]1` (stereo partly drawn) [Compound 101, 2-amino-9-[(6R,8R,15R,17R)-8-(6-amino-9H-purin-9-yl)-3,9,12,18-tetrahydroxy-12-oxo-3-sulfanylidene-2,4,7,11,13-pentaoxa-3λ^5,12λ^5-diphosphatricyclo[13.2.1.0^6,10]octadecan-17-yl]-6,9-dihydro-1H-purin-6-one], the ΔTm at 150 µM was determined as 12 °C.

For `Nc1nc2c(ncn2[C@@H]2C[C@@H]3COP(=O)(O)OC4C(O)[C@H](n5cnc6c(N)nc(F)nc65)O[C@@H]4COP(=O)(O)OC2C3O)c(=O)[nH]1` (stereo partly drawn) [Compound 103, (6R,8R,15R,17R)-8-(6-amino-2-fluoro-9H-purin-9-yl)-17-(2-amino-6-oxo-6,9-dihydro-1H-purin-9-yl)-3,9,12,18-tetrahydroxy-2,4,7,11,13-pentaoxa-3λ^5,12λ^5-diphosphatricyclo[13.2.1.0^6,10]octadecane-3,12-dione], under setting [1], the ΔTm at 150 µM was 7.9 °C.

Turning to `Nc1ncnc2c1ncn2[C@@H]1O[C@@H]2COP(=O)(O)O[C@@H]3[C@H](F)[C@@H](COP(=O)(O)O[C@H]2[C@H]1F)C[C@H]3n1cnc2c(=O)[nH]cnc21` [Compound 127], the thermal shift (ΔTm) at 150 µM under setting [1] is 8.2 °C.

Turning to `Nc1nc2c(ncn2[C@@H]2C[C@@H]3COP(=O)(O)OC4C(O)[C@H](n5cnc6c(Cl)ncnc65)O[C@@H]4COP(=O)(O)OC2C3O)c(=O)[nH]1` (stereo partly drawn) [Compound 115, (6R,8R,15R,17R)-17-(2-amino-6-oxo-6,9-dihydro-1H-purin-9-yl)-8-(6-chloro-9H-purin-9-yl)-3,9,12,18-tetrahydroxy-2,4,7,11,13-pentaoxa-3λ^5,12λ^5-diphosphatricyclo[13.2.1.0^6,10]octadecane-3,12-dione], the ΔTm at 150 µM under setting [1] turned out to be 6.3 °C.

`Nc1nc2c(ncn2[C@@H]2C[C@@H]3COP(=O)(S)OC4C(O)[C@H](n5cnc6c(N)ncnc65)O[C@@H]4COP(=O)(O)OC2C3O)c(=O)[nH]1` (stereo partly drawn) [Compound 118, (6R,8R,15R,17R)-17-(2-amino-6-oxo-6,9-dihydro-1H-purin-9-yl)-8-(6-amino-9H-purin-9-yl)-3,9,18-trihydroxy-12-sulfanyl-2,4,7,11,13-pentaoxa-3λ^5,12λ^5-diphosphatricyclo[13.2.1.0^6,10]octadecane-3,12-dione]: under setting [1], the thermal shift (ΔTm) at 150 µM worked out at 8.5 °C.

For `C#Cc1cn([C@@H]2O[C@@H]3COP(=O)(O)OC4C(O)[C@@H](COP(=O)(O)OC3C2O)C[C@H]4n2cnc3c(=O)[nH]c(N)nc32)c2ncnc(N)c12` (stereo partly drawn) [Compound 114, (6R,8R,15R,17R)-8-{4-amino-5-ethynyl-7H-pyrrolo 2,3-dlpyrimidin-7-yl}-17-(2-amino-6-oxo-6,9-dihydro-1H-purin-9-yl)-3,9,12,18-tetrahydroxy-2,4,7,11,13-pentaoxa-3λ^5,12λ^5-diphosphatricyclo[13.2.1.0^6,10]octadecane-3,12-dione], under setting [1], the shift in melting temperature (ΔTm) at 150 µM was 4.4 °C.

As to `Nc1ncc2ncn([C@@H]3O[C@@H]4COP(=O)(O)OC5C(O)[C@@H](COP(=O)(O)OC4C3O)C[C@H]5n3cnc4c(=O)[nH]cnc43)c2n1` (stereo partly drawn) [Compound 119, (6R,8R,15R,17R)-8-(2-amino-9H-purin-9-yl)-3,9,12,18-tetrahydroxy-17-(6-oxo-6,9-dihydro-1H-purin-9-yl)-2,4,7,11,13-pentaoxa-3λ^5,12λ^5-diphosphatricyclo[13.2.1.0^6,10]octadecane-3,12-dione], the ΔTm at 150 µM under setting [1] stood at 5.2 °C.

A word on the ΔTm: it is the change in melting temperature against a reference sample.

For the origin of these results see patent US20190359645A1, “2'3'-CYCLIC DINUCLEOTIDES COMPRISING CARBOCYCLIC NUCLEOTIDE” (Institute of Organic Chemistry and Biochemistry ASCR, V.V.I., priority 2018, published 2019).
